Measured values taken from PubChem BioAssay AID1963849 (Molecular Pharmacology Branch, DTP, NCI, 2024).

Test system: 299254-011-R-J1-PDC complex spheroid viability
Assay: Anticancer human tumor 299254-011-R-J1-PDC patient-derived melanoma cell line growth inhibition [POLQ]
Details: for IC50: curve of first compound; for viability, T/C: stronger effect = lower value
Outline: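 Three-cell-type spheroids modelling solid tumor plus stroma served as the readout system; POL inhibitors were tested individually and in combination, concentration ranges set by clinical Cmax where known.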

[1] = second compound 0.0316 µM, first compound 0.0316 µM
[2] = second compound 0.0316 µM, first compound 0.1 µM
[3] = second compound 0.0316 µM, first compound 0.316 µM
[4] = second compound 0.0316 µM, first compound 1 µM
[5] = second compound 0.0316 µM, first compound 3.16 µM
[6] = second compound 0.0316 µM, first compound 10 µM
[7] = second compound 0.1 µM, first compound 0.0316 µM
[8] = second compound 0.1 µM, first compound 0.1 µM
[9] = second compound 0.1 µM, first compound 0.316 µM
[10] = second compound 0.1 µM, first compound 1 µM
[11] = second compound 0.1 µM, first compound 3.16 µM
[12] = second compound 0.1 µM, first compound 10 µM
[13] = second compound 0.316 µM, first compound 0.0316 µM
[14] = second compound 0.316 µM, first compound 0.1 µM
[15] = second compound 0.316 µM, first compound 0.316 µM
[16] = second compound 0.316 µM, first compound 1 µM
[17] = second compound 0.316 µM, first compound 3.16 µM
[18] = second compound 0.316 µM, first compound 10 µM
[19] = second compound 1 µM, first compound 0.0316 µM
[20] = second compound 1 µM, first compound 0.1 µM
[21] = second compound 1 µM, first compound 0.316 µM
[22] = second compound 1 µM, first compound 1 µM
[23] = second compound 1 µM, first compound 3.16 µM
[24] = second compound 1 µM, first compound 10 µM
[25] = second compound 3.16 µM, first compound 0.0316 µM
[26] = second compound 3.16 µM, first compound 0.1 µM
[27] = second compound 3.16 µM, first compound 0.316 µM
[28] = second compound 3.16 µM, first compound 1 µM
[29] = second compound 3.16 µM, first compound 3.16 µM
[30] = second compound 3.16 µM, first compound 10 µM
[31] = second compound 10 µM, first compound 0.0316 µM
[32] = second compound 10 µM, first compound 0.1 µM
[33] = second compound 10 µM, first compound 0.316 µM
[34] = second compound 10 µM, first compound 1 µM
[35] = second compound 10 µM, first compound 3.16 µM
[36] = second compound 10 µM, first compound 10 µM
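Also: spheroids exposed to drugs for one week before measurement.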
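For viability, T/C in this document: percent viability relative to DMSO vehicle control taken as 100%.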

CCc1cc2c(N3CCc4c(cc(Cn5ccnc5)cc4-c4cn(C)nc4C(F)(F)F)C3=O)cc(C)nc2c(OC)n1 + Nc1ccc(C#CCN(C(=O)Cc2ncc(C(F)(F)F)cc2C(F)(F)F)c2ccc(F)cc2)nn1
IC50 (second compound 0.0316 µM): > 10 µM
IC50 (second compound 0.1 µM): > 10 µM
IC50 (second compound 0.316 µM): > 10 µM
IC50 (second compound 1 µM): > 10 µM
IC50 (second compound 3.16 µM): > 10 µM
IC50 (second compound 10 µM): > 10 µM
viability, T/C [1]: 94.3%
viability, T/C [2]: 99.2%
viability, T/C [3]: 107%
viability, T/C [4]: 98.5%
viability, T/C [5]: 86.8%
viability, T/C [6]: 58.7%
viability, T/C [7]: 90.3%
viability, T/C [8]: 103%
viability, T/C [9]: 117%
viability, T/C [10]: 101%
viability, T/C [11]: 92.9%
viability, T/C [12]: 76.1%
viability, T/C [13]: 114%
viability, T/C [14]: 110%
viability, T/C [15]: 100%
viability, T/C [16]: 94.4%
viability, T/C [17]: 95%
viability, T/C [18]: 63.1%
viability, T/C [19]: 107%
viability, T/C [20]: 95.7%
viability, T/C [21]: 111%
viability, T/C [22]: 101%
viability, T/C [23]: 89.4%
viability, T/C [24]: 70.9%
viability, T/C [25]: 116%
viability, T/C [26]: 106%
viability, T/C [27]: 91.7%
viability, T/C [28]: 86.2%
viability, T/C [29]: 90.6%
viability, T/C [30]: 55.1%
viability, T/C [31]: 98.7%
viability, T/C [32]: 96.5%
viability, T/C [33]: 90.9%
viability, T/C [34]: 85.3%
viability, T/C [35]: 68%
viability, T/C [36]: 61.1%

CCc1cc2c(N3CCc4c(cc(Cn5ccnc5)cc4-c4cn(C)nc4C(F)(F)F)C3=O)ccnc2c(OC)n1 + Nc1ccc(C#CCN(C(=O)Cc2ncc(C(F)(F)F)cc2C(F)(F)F)c2ccc(F)cc2)nn1
IC50 (second compound 0.0316 µM): > 10 µM
IC50 (second compound 0.1 µM): > 10 µM
IC50 (second compound 0.316 µM): > 10 µM
IC50 (second compound 1 µM): > 10 µM
IC50 (second compound 3.16 µM): > 10 µM
IC50 (second compound 10 µM): > 10 µM
viability, T/C [1]: 118%
viability, T/C [2]: 99.3%
viability, T/C [3]: 93.6%
viability, T/C [4]: 115%
viability, T/C [5]: 109%
viability, T/C [6]: 74.3%
viability, T/C [7]: 101%
viability, T/C [8]: 107%
viability, T/C [9]: 91.4%
viability, T/C [10]: 99.2%
viability, T/C [11]: 89.2%
viability, T/C [12]: 73.6%
viability, T/C [13]: 126%
viability, T/C [14]: 100%
viability, T/C [15]: 107%
viability, T/C [16]: 98.9%
viability, T/C [17]: 97.2%
viability, T/C [18]: 79.5%
viability, T/C [19]: 102%
viability, T/C [20]: 114%
viability, T/C [21]: 103%
viability, T/C [22]: 101%
viability, T/C [23]: 89%
viability, T/C [24]: 73.5%
viability, T/C [25]: 96.9%
viability, T/C [26]: 97.2%
viability, T/C [27]: 89.5%
viability, T/C [28]: 100%
viability, T/C [29]: 84.5%
viability, T/C [30]: 76.5%
viability, T/C [31]: 90.4%
viability, T/C [32]: 103%
viability, T/C [33]: 87%
viability, T/C [34]: 80.6%
viability, T/C [35]: 84.8%
viability, T/C [36]: 62.2%
